Converted amounts (≈) assume the structure as drawn. Read-outs that look alike come from different tables or passages of the source.
Experiments:
E. coli HP73 = test: microbe, parasite or virus in culture; format: cell-based, Escherichia coli; conditions: read-out: MICs, E. coli HP73
Excerpt: (§1) Escherichia coli ATCC25922, E. coli UB1005, Pseudomonas aeruginosa ATCC27853, Salmonella typhimurium ATCC14028, S. typhimurium C7731, Staphylococcus aureus ATCC29213, Methicillin-resistant S. aureus (MRSA) ATCC43300, S. epidermidis ATCC12228, and Enterococcus faecalis ATCC29212 were stored by the institute of animal nutrition, Northeast Agricultural University (Harbin, China). Multidrug-Resistant E. coli HP73 and E. coli HP74 were clinically isolated from swine-derived Escherichia coli and stored by the institute of animal nutrition, Northeast Agricultural University (Harbin, China).
(§2) The MICs were determined using a broth microdilution method with reference to Clinical and Laboratory Standards Institute (CLSI) guidelines ([Wiegand et al., 2008]). After a two-fold serial dilution of the peptides (50 μl, dilution buffer: 0.01% acetic acid containing 0.2% BSA) prepared in a 96-well plate, a series of an equal volume of bacterial solution (50 μl) prepared in Mueller-Hinton broth (MHB) were added to the same 96-well plate, and the final bacterial inoculum size in each well of the 96-well plate was approximately 5 × 10^5 CFU/ml. As positive and negative controls, bacteria solution without peptides and blank samples without bacteria were prepared in the same 96-well plate. […] The lowest peptide concentration at which there was no increase in optical density was referred to as the MIC.

E. coli HP74 = test: microbe, parasite or virus in culture; format: cell-based, Escherichia coli; conditions: read-out: MICs, E. coli HP74
Excerpt: as §1, §2

IPEC-J2 = test: MTT cytotoxicity assay; format: cell-based, porcine; conditions: 1 day incubation
Protocol: (§3) 3-(4,5-dimethylthiozol-2-yl)-2,5-diphenyltetrazolium bromide (MTT) assay and live/dead cell staining assay were conducted to assess the peptide cytotoxicity. For the MTT assay, cell lines were seeded and passaged twice in high-glucose Dulbecco’s modified Eagle’s medium (DMEM, containing 100 μg/ml streptomycin, 100 U/ml penicillin, and 10% vol/vol fetal bovine serum) or Dulbecco’s Modified Eagle Medium/Nutrient Mixture F-12 (DMEM/F-12, containing 100 μg/ml streptomycin, 100 U/ml penicillin, and 10% vol/vol fetal bovine serum) at a 5% CO2 incubator (37°C). The cells (approximately 50,000 cells per well) were cultured in a 96-well plate at a 5% CO2 incubator for 1 day. Then various concentrations of peptide solutions (50 μl) were added to the plate and incubated for another 1 day. The cells solution without peptides and blank samples without cells and peptides were prepared in the same 96-well plate as positive and negative controls, respectively. Subsequently, MTT (0.5 mg/ml, 20 μl per well) was added and the plate was incubated for another 4 h. Removed all supernatant from the plate and added 150 μl of dimethyl sulfoxide. Finally, a microplate reader (Tecan GENios F129004, Austria) was used to record the absorbance data at OD570 nm. Melittin was employed as a control peptide. The cell viability was calculated using the previously described equation ([Lai et al., 2021]).

HEK293T = test: MTT cytotoxicity assay; format: cell-based, human; conditions: 1 day incubation
Protocol: as §3

[1] = Escherichia coli, HP73, multidrug-resistant, colistin-resistant swine clinical isolate, broth microdilution, MHB, 37°C 20 h
[2] = Escherichia coli, HP74, multidrug-resistant, colistin-resistant swine clinical isolate, broth microdilution, MHB, 37°C 20 h
[3] = multidrug-resistant, colistin-resistant swine clinical isolate, broth microdilution, MHB, 37°C 20 h

Q: `CNC(C)C1CCC(N)C(OC2C(N)CC(N)C(OC3OCC(C)(O)C(NC)C3O)C2O)O1` (stereo not shown) [Gentamicin] was tested. Which MIC (E. coli HP73; [1]) did it give?
A: 128 µM (≈ 61.1 µg/mL)

Q: What about the MIC (E. coli HP74; [2]) of the same compound?
A: 128 µM (≈ 61.1 µg/mL)

Q: Which results are given for `CC[C@H](C)[C@H](NC(=O)CN)C(=O)NCC(=O)N[C@@H](C)C(=O)N[C@H](C(=O)N[C@@H](CC(C)C)C(=O)N[C@@H](CCCCN)C(=O)N[C@H](C(=O)N[C@@H](CC(C)C)C(=O)N[C@H](C(=O)N[C@H](C(=O)NCC(=O)N[C@@H](CC(C)C)C(=O)N1CCC[C@H]1C(=O)N[C@@H](C)C(=O)N[C@@H](CC(C)C)C(=O)N[C@H](C(=O)N[C@@H](CO)C(=O)N[C@@H](Cc1c[nH]c2ccccc12)C(=O)N[C@H](C(=O)N[C@@H](CCCCN)C(=O)N[C@@H](CCCNC(=N)N)C(=O)N[C@@H](CCCCN)C(=O)N[C@@H](CCCNC(=N)N)C(=O)N[C@@H](CCC(N)=O)C(=O)N[C@@H](CCC(N)=O)C(N)=O)[C@@H](C)CC)[C@@H](C)CC)[C@@H](C)O)[C@@H](C)O)C(C)C)C(C)C` [Melittin, reference compound]?
A: Concentration above which significant cytotoxicity toward IPEC-J2 (IPEC-J2): > 16 µM; Concentration above which significant cytotoxicity toward HEK293T (HEK293T): greater than 8 μM

Q: What does the source list for `CC[C@H]1OC(=O)[C@H](C)[C@@H](O[C@H]2C[C@@](C)(OC)[C@@H](O)[C@H](C)O2)[C@H](C)[C@@H](O[C@@H]2O[C@H](C)C[C@H](N(C)C)[C@H]2O)[C@](C)(O)C[C@@H](C)C(=O)[C@H](C)[C@@H](O)[C@]1(C)O` [Erythromycin]?
A: MIC (E. coli HP73; [1]): > 128 µM; MIC (E. coli HP74; [2]): > 128 µM

Q: How did the MIC (E. coli HP73; [1]) turn out when `CO[C@H]1/C=C/O[C@@]2(C)Oc3c(C)c(O)c4c(O)c(c(/C=N/N5CCN(C)CC5)c(O)c4c3C2=O)NC(=O)/C(C)=C\C=C\[C@H](C)[C@H](O)[C@@H](C)[C@@H](O)[C@@H](C)[C@H](OC(C)=O)[C@@H]1C` [Rifampicin] was run?
A: > 128 µM

Q: And the MIC (E. coli HP74; [2])?
A: 16 µM (≈ 13.2 µg/mL)

Q: Which MIC (E. coli HP73; [1]) does the source give for `CC(C)(O/N=C(\C(=O)N[C@@H]1C(=O)N2C(C(=O)[O-])=C(C[n+]3ccccc3)CS[C@H]12)c1csc(N)n1)C(=O)O` [Ceftazidime] here?
A: 128 µM (≈ 70 µg/mL)

Q: And the MIC (E. coli HP74; [2])?
A: 32 µM (≈ 17.5 µg/mL)

Q: What does the source list for Polymyxin B?
A: MIC (E. coli HP73; [3]): 8 µM; MIC (E. coli HP74; [3]): 4 µM

Q: With `CC1COc2c(N3CCN(C)CC3)c(F)cc3c(=O)c(C(=O)O)cn1c23` (stereo not shown) [Ofloxacin] as the compound, how does the MIC (E. coli HP73; [1]) read?
A: > 128 µM

Q: What about the MIC (E. coli HP74; [2]) of the same compound?
A: > 128 µM

Q: What does the source list for Colistin?
A: MIC (E. coli HP73; [3]): 4 µM; MIC (E. coli HP74; [3]): 4 µM

Q: With `CCn1cc(C(=O)O)c(=O)c2cc(F)c(N3CCNCC3)cc21` [Norfloxacin] as the compound, how does the MIC (E. coli HP73; [1]) read?
A: > 128 µM

Q: And the MIC (E. coli HP74; [2])?
A: 128 µM (≈ 40.9 µg/mL)

Q: What does the source list for Kanamycin A?
A: MIC (E. coli HP73; [3]): >128 µM; MIC (E. coli HP74; [3]): >128 µM

Q: Which MIC (E. coli HP73; Escherichia coli, HP73, 20 h) does the source give for `CN[C@H](CC(C)C)C(=O)N[C@H]1C(=O)N[C@@H](CC(N)=O)C(=O)N[C@H]2C(=O)N[C@H]3C(=O)N[C@H](C(=O)N[C@H](C(=O)O)c4cc(O)cc(O)c4-c4cc3ccc4O)[C@H](O)c3ccc(c(Cl)c3)Oc3cc2cc(c3O[C@@H]2O[C@H](CO)[C@@H](O)[C@H](O)[C@H]2O[C@H]2C[C@](C)(N)[C@H](O)[C@H](C)O2)Oc2ccc(cc2Cl)[C@H]1O` [Vancomycin] here?
A: 64 µM (≈ 92.8 µg/mL)

Q: And the MIC (E. coli HP74; Escherichia coli, HP74, 20 h)?
A: 32 µM (≈ 46.4 µg/mL)

From PMC9780499, “Designing double-site lipidated peptide amphiphiles as potent antimicrobial biomaterials to combat multidrug-resistant bacteria” (Frontiers in Microbiology, 2022)
